The structures appear in SMILES notation.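 Cultured in 96-well plates, cells were exposed to test compound for 48 hours across five concentrations. The concentration for 50% growth inhibition is given as GI50.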 Activity calls are given as the source filed them. No stated cut-off is given here; in the data, active = GI50 up to about 1.1 µM and inactive = higher.

Test systems include DU-145; HCT-116; SNB-19; UO-31; OVCAR-3; LOX IMVI; SF-268; SNB-75; COLO 205; SK-MEL-5; M14; CAKI-1; CCRF-CEM; A498; OVCAR-8; SW-620; TK-10; NCI-H226; SR; NCI-H460.
Holding throughout (experiment): DTP human tumour cell line panel, 48 h

`CN(CCCCCl)P(=O)(OCc1ccc([N+](=O)[O-])o1)OC[C@H]1O[C@@H](n2cc(F)c(=O)[nH]c2=O)C[C@@H]1O` (stereo not given in full): the GI50 – broadly, the concentration giving 50% growth inhibition – in the assay on DU-145 is 0.569 µM (active); in the assay on HCT-116 it was 0.995 µM (active); in the assay on SNB-19, 1.85 µM (inactive); in the assay on UO-31, 0.355 µM (active); in the assay with OVCAR-3, 0.52 µM (active); in the assay on LOX IMVI, 0.07 µM (active). The GI50 in the assay on SF-268 was 0.0284 µM (active); in the assay with SNB-75, 0.102 µM (active); in the assay with COLO 205 it was < 0.01 µM (active); with SK-MEL-5 it was 0.849 µM (active); with M14, 1.04 µM (active); in the assay on CAKI-1, 0.0693 µM (active). For the same compound, the GI50 was 0.173 µM (active) in the assay on CCRF-CEM; 0.0236 µM (active) with A498; 0.352 µM (active) with OVCAR-8; 17.3 µM (inactive) in the assay with SW-620; 1.79 µM (inactive) in the assay with TK-10; 3.59 µM (inactive) in the assay with NCI-H226. Also, the GI50 with SR is 0.0702 µM (active); in the assay on NCI-H460, < 0.01 µM (active).
As for `C#CCNC(CS)C(=O)O` (stereo not given), the GI50 in the assay on DU-145, in the assay with HCT-116, in the assay with SNB-19, with UO-31, in the assay with OVCAR-3 and with LOX IMVI was > 100 µM (inactive) in each case. Also, the GI50 in the assay with SF-268, in the assay on SNB-75, in the assay with COLO 205, in the assay with SK-MEL-5, with M14 and in the assay on CAKI-1 was > 100 µM (inactive) throughout. Moreover, the GI50 with CCRF-CEM, in the assay on A498, in the assay with OVCAR-8, in the assay on SW-620, in the assay with TK-10 and with NCI-H226 was > 100 µM (inactive) in each case. The GI50 with SR and in the assay with NCI-H460 was > 100 µM (inactive) throughout.
In the case of `COc1cc2c3c(cc(Cl)nc3c1OC)C(=O)C(=O)N2`, the GI50 in the assay on DU-145 is 17 µM (inactive); in the assay on HCT-116, 4.33 µM (inactive); with SNB-19 it was 22.9 µM (inactive); with UO-31 it was 13.6 µM (inactive); with OVCAR-3 it was 16.6 µM (inactive); in the assay with LOX IMVI it was 9.44 µM (inactive). The GI50 in the assay with SF-268 was 17.4 µM (inactive); with SNB-75, 15.7 µM (inactive); in the assay with COLO 205, 21.9 µM (inactive); with SK-MEL-5 it was 16.4 µM (inactive); with M14, 15.6 µM (inactive); with CAKI-1, 15.1 µM (inactive). Further, the GI50 was 1.69 µM (inactive) with CCRF-CEM; 16.6 µM (inactive) in the assay on A498; 18.2 µM (inactive) with OVCAR-8; 5.85 µM (inactive) with SW-620; 18.7 µM (inactive) with TK-10; 21.1 µM (inactive) in the assay with NCI-H226. For the same compound, the GI50 in the assay on SR is 3.26 µM (inactive); with NCI-H460 it was 20.7 µM (inactive).
`Cc1cc(N(CCC#N)CCC#N)ccc1/C=C1\SC(=S)NC1=O`: the GI50 was > 100 µM (inactive) in the assay with DU-145; 54.2 µM (inactive) in the assay on HCT-116; > 100 µM (inactive) in the assay with SNB-19; 99.8 µM (inactive) in the assay on UO-31; 51.3 µM (inactive) in the assay with OVCAR-3; > 100 µM (inactive) with LOX IMVI. Besides, the GI50 was 23.6 µM (inactive) in the assay on SF-268; 11.6 µM (inactive) in the assay with SNB-75; > 100 µM (inactive) with COLO 205; > 100 µM (inactive) in the assay with SK-MEL-5; 40.3 µM (inactive) with M14; 41.4 µM (inactive) in the assay with CAKI-1. The GI50 in the assay on CCRF-CEM was 25.9 µM (inactive); with A498, 49.8 µM (inactive); in the assay on OVCAR-8, 49.3 µM (inactive); in the assay with SW-620 it was > 100 µM (inactive); in the assay with TK-10, > 100 µM (inactive); with NCI-H226 it was > 100 µM (inactive). Besides, the values for the GI50 in the assay with SR and in the assay on NCI-H460 were 22 µM (inactive) and 30.3 µM (inactive), respectively.
`COc1ccccc1CNCc1nc2ccccc2[nH]1`: the GI50 with DU-145, with HCT-116, with SNB-19, in the assay with UO-31, in the assay on OVCAR-3 and with LOX IMVI was > 100 µM (inactive) throughout. In addition, the GI50 is > 100 µM (inactive) in the assay on SF-268; > 100 µM (inactive) in the assay on SNB-75; > 100 µM (inactive) in the assay on COLO 205; 48.5 µM (inactive) in the assay with SK-MEL-5; > 100 µM (inactive) with M14; > 100 µM (inactive) with CAKI-1. For the same compound, the GI50 with CCRF-CEM, in the assay with A498, with OVCAR-8, in the assay with SW-620, in the assay with TK-10 and in the assay with NCI-H226 was > 100 µM (inactive) each time. The GI50 in the assay with SR and in the assay with NCI-H460 was > 100 µM (inactive) in each case.
As for `CN(C)c1ccc(C=c2c3ccccc3n3c2c2ccccc2[n+]3C)cc1`, the GI50 in the assay on DU-145 was 1.3 µM (inactive); in the assay with HCT-116, 0.354 µM (active); in the assay on SNB-19, 1.25 µM (inactive); in the assay with UO-31 it was 0.836 µM (active); in the assay on OVCAR-3, 0.239 µM (active); in the assay on LOX IMVI it was 0.597 µM (active). Further, the GI50 with SF-268 was 0.425 µM (active); in the assay with SNB-75, 2.17 µM (inactive); in the assay on COLO 205, 0.0682 µM (active); with SK-MEL-5, 0.112 µM (active); in the assay with M14, 0.493 µM (active); in the assay with CAKI-1 it was 1.08 µM (active). Further, the GI50 is 0.15 µM (active) in the assay with CCRF-CEM; 1.69 µM (inactive) in the assay with A498; 0.364 µM (active) with OVCAR-8; 0.164 µM (active) with SW-620; 1.2 µM (inactive) in the assay on TK-10; 3.08 µM (inactive) with NCI-H226. Also, the GI50 with SR was 0.199 µM (active); in the assay with NCI-H460, 2.84 µM (inactive).
`CO[C@H]1C=CO[C@@]2(C)Oc3c(C)c(O)c4c(O)c(c(CN5CCN(C)CC5)c(O)c4c3C2=O)NC(=O)/C(C)=C\C=C[C@H](C)[C@H](O)C(C)[C@@H](O)C(C)[C@H](OC(C)=O)[C@@H]1C` (stereo not given in full): the GI50 is 34.8 µM (inactive) in the assay on DU-145; 13.4 µM (inactive) in the assay with HCT-116; > 100 µM (inactive) in the assay with SNB-19; 33.7 µM (inactive) in the assay on UO-31; 2.88 µM (inactive) with OVCAR-3; 14.3 µM (inactive) in the assay on LOX IMVI. For the same compound, the GI50 with SF-268 is 50.2 µM (inactive); in the assay on SNB-75, 72.9 µM (inactive); in the assay on COLO 205, 5.7 µM (inactive); in the assay with SK-MEL-5, 24.3 µM (inactive); in the assay on M14, 24.2 µM (inactive); in the assay with CAKI-1 it was > 77.1 µM (inactive). Also, the GI50 with CCRF-CEM was 4.39 µM (inactive); in the assay on A498, > 100 µM (inactive); in the assay on OVCAR-8, 20 µM (inactive); in the assay on SW-620 it was 13.1 µM (inactive); with TK-10 it was 49.4 µM (inactive); with NCI-H226, > 63.5 µM (inactive). Besides, the GI50 in the assay on SR was 6.62 µM (inactive); with NCI-H460 it was 39.6 µM (inactive).
For the compound `C=C1CC(Cn2cc(C)c(=O)[nH]c2=O)(c2ccc(-c3ccccc3)cc2)OC1=O` (stereo not given), the GI50 in the assay with DU-145 is 2.35 µM (inactive); in the assay on HCT-116 it was 0.596 µM (active); in the assay with SNB-19 it was 13.8 µM (inactive); in the assay with UO-31, 5.32 µM (inactive); with OVCAR-3, 1.21 µM (inactive); with LOX IMVI, 0.889 µM (active). The GI50 was 2.26 µM (inactive) in the assay with SF-268; 7.87 µM (inactive) in the assay on SNB-75; 0.984 µM (active) in the assay with COLO 205; 1.07 µM (active) with SK-MEL-5; 1.1 µM (active) in the assay on M14; 1.55 µM (inactive) in the assay on CAKI-1. Moreover, the GI50 was 0.379 µM (active) in the assay with CCRF-CEM; 3.34 µM (inactive) with A498; 1.95 µM (inactive) with OVCAR-8; 0.546 µM (active) with SW-620; 1.4 µM (inactive) with TK-10; 14.3 µM (inactive) in the assay on NCI-H226. Besides, the GI50 in the assay on SR is 0.82 µM (active); with NCI-H460 it was 6.95 µM (inactive).
Take `CCOC(=O)C1=C(O)C2C3CC4C2C(O)=C(C(=O)OCC)C2C1C3C42` (stereo not given): the GI50 is > 100 µM (inactive) in the assay on DU-145; > 100 µM (inactive) in the assay on HCT-116; > 100 µM (inactive) with SNB-19; > 100 µM (inactive) in the assay on UO-31; > 100 µM (inactive) with OVCAR-3; 98.6 µM (inactive) in the assay on LOX IMVI. Further, the GI50 in the assay with SF-268, with SNB-75, with COLO 205, in the assay on SK-MEL-5, in the assay with M14 and in the assay with CAKI-1 was > 100 µM (inactive) throughout. The GI50 is 42.7 µM (inactive) in the assay on CCRF-CEM; > 100 µM (inactive) in the assay on A498; > 100 µM (inactive) in the assay on OVCAR-8; > 100 µM (inactive) in the assay with SW-620; > 100 µM (inactive) in the assay with TK-10; > 100 µM (inactive) with NCI-H226. In addition, the GI50 in the assay with SR was 45.3 µM (inactive); in the assay on NCI-H460, > 100 µM (inactive).
For the compound `O=C1CS(=O)(=O)C(c2cccc(Oc3ccccc3)c2)N1c1ccccc1` (stereo not given), the GI50 in the assay with DU-145 is 48 µM (inactive); in the assay with HCT-116, 16.3 µM (inactive); in the assay with SNB-19, 43.3 µM (inactive); in the assay on UO-31, 29.9 µM (inactive); in the assay on OVCAR-3, 20.7 µM (inactive); with LOX IMVI it was 16.5 µM (inactive). In addition, the GI50 was 23.7 µM (inactive) in the assay on SF-268; 34.1 µM (inactive) in the assay with SNB-75; 20 µM (inactive) in the assay with COLO 205; 14.9 µM (inactive) in the assay on SK-MEL-5; 18.7 µM (inactive) with M14; 20.5 µM (inactive) in the assay with CAKI-1. Moreover, the GI50 with CCRF-CEM was 34.8 µM (inactive); with A498, 17.9 µM (inactive); in the assay on OVCAR-8, 27 µM (inactive); in the assay on SW-620, 31.5 µM (inactive); in the assay on TK-10 it was 26.6 µM (inactive); in the assay on NCI-H226 it was 21.4 µM (inactive). Further, the GI50 is 19.9 µM (inactive) with SR and 18.7 µM (inactive) with NCI-H460.

Values taken from ChEMBL document CHEMBL1201862, “PubChem BioAssay data set” (2004).
